Measurements from patent US5488060A, “Substituted thiadiazoles, compositions containing them and their use as antimicrobial and marine antifouling agents” (The Dow Chemical Company, priority 1994, dated 1996).
In brackets after ≈: the same amount, converted by molar mass. Like-named read-outs stand apart in the source and are kept apart here.

What was measured:
[1] = test system: Klebsiella pneumoniae (Kp); test: Minimum inhibitory concentration (MIC) in nutrient agar, Klebsiella pneumoniae; assay type: cell-based
Outline: (§1)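 Test compound, as a 1% acetone–water solution, was mixed into molten nutrient agar (pH 6.8 or pH 8.2) at 48° C to final levels of 500 down to 1.0 ppm. Plates were dried 24 h, spot-inoculated with 10^8 CFU/mL suspensions of 24-h cultures, and incubated 48 h at 30° C. MIC was the lowest level preventing growth.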

[2] = test system: Saccharomyces cerevisiae (Sc); test: Minimum inhibitory concentration (MIC) in malt yeast agar, Saccharomyces cerevisiae; assay type: cell-based
Outline: (§2)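 Growth is scored at 30 °C after 72 h for fungi and 48 h for yeast on malt yeast agar (pH 5.5) containing compound at final levels from 500 down to zero ppm. Organisms are grown 7 days at 30 °C, suspended in saline with octylphenoxy polyethoxy ethanol, and diluted 1:9 before replicator inoculation.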

[3] = test system: Pseudomonas aeruginosa (Pa); test: Minimum inhibitory concentration (MIC) in nutrient agar, Pseudomonas aeruginosa; assay type: cell-based; conditions: 30° C., 48 hours, read-out: Minimum Inhibitory Concentration, Pa
Outline: as §1

Bacillus subtilis (Bs) = test: Minimum inhibitory concentration (MIC) in nutrient agar, Bacillus subtilis; assay type: cell-based
Outline: as §1

marine organisms = test: Marine antifouling rating of coated test panels exposed to the marine environment; conditions: scale 10 (completely free of growth) to 0 (completely covered); for Marine Antifouling Rating, 6 Week Test, Top Panel / Marine Antifouling Rating, 6 Week Test, Bottom Panel: 6 weeks; for Marine Antifouling Rating, 6 Week Test, Top Panel / Marine Antifouling Rating, 10 Week Test, Top Panel: topside; for Marine Antifouling Rating, 6 Week Test, Bottom Panel / Marine Antifouling Rating, 10 Week Test, Bottom Panel: underside; for Marine Antifouling Rating, 10 Week Test, Top Panel / Marine Antifouling Rating, 10 Week Test, Bottom Panel: 10 weeks
Description: Test panels are prepared from clear, rigid polyvinyl chloride film that is 0.381×10-3 m thick and has one textured surface. The test panels are 0.1524 m by 0.1524 m squares that have 0.00635 m holes punched at corners on 0.127 m centers. A 0.102 square template, with a 0.067 m diameter hole at the center, is attached to the center of the textured surface of the test panels.
A candidate marine antifoulant compound (1.0 g) is stirred into a resinous latex binder (9.0 g). A portion of the compound/binder mixture (1.5 g) is added to the center of the test panel and uniformly spread over the circular area inside the template.
Water is added dropwise as needed to properly spread the compound/binder mixture. The template prevents the compound/binder mixture from spreading beyond the uncovered area. […] The template is then removed. The test panel is then allowed to dry for 8 to 12 hours at room temperature.
Two test panels are prepared for each candidate marine antifoulant compound. Two control test panels are also prepared by only treating with the resinous latex binder. One test panel of each candidate marine […] compound is attached over a white background to the topside of an exposure support apparatus. The second test panel is attached over a black background to the underside of the exposure support apparatus. The exposure support apparatus is placed horizontally 0.0254 m under a marine surface with the white background topside facing up.
After being removed from the exposure support apparatus, each test panel is inspected and rated for marine organism growth on both the treated and untreated areas of the test panel, The marine organisms present on the treated and untreated areas are noted. The presence of algae spores and bacterial slime are noted but not included in rating each test panel. The test panels are rated on a scale from 10 (representing completely free of marine organism growth) to 0 (representing completely covered with marine organism growth).
In addition, test panels were prepared using tributyl tin oxide, a known marine antifouling compound.

Trichoderma viride (Tv) = test: Minimum inhibitory concentration (MIC) in malt yeast agar, Trichoderma viride; assay type: cell-based
Outline: as §2

[4] = test system: Staphylococcus aureus (Sa); test: Minimum inhibitory concentration (MIC) in nutrient agar, Staphylococcus aureus; assay type: cell-based
Outline: as §1

Candida albicans (Ca) = test: Minimum inhibitory concentration (MIC) in malt yeast agar, Candida albicans; assay type: cell-based
Outline: as §2

[5] = test system: Salmonella choleraesuis (Se); test: Minimum inhibitory concentration (MIC) in nutrient agar, Salmonella choleraesuis; assay type: cell-based; conditions: Salmonella enterica
Outline: as §1

Escherichia coli (Ec) = test: Minimum inhibitory concentration (MIC) in nutrient agar, Escherichia coli; assay type: cell-based
Outline: as §1

[6] = pH 6.8, nutrient agar, 30° C., 48 hours, read-out: Minimum Inhibitory Concentration, Kp
[7] = 48 h, pH 8.2, read-out: Minimum Inhibitory Concentration, Bs
[8] = pH 6.8, nutrient agar, 30° C., 48 hours, read-out: Minimum Inhibitory Concentration, Bs
[9] = pH 6.8, nutrient agar, 30° C., 48 hours, read-out: Minimum Inhibitory Concentration, Sa
[10] = pH 6.8, nutrient agar, 30° C., 48 hours, read-out: Minimum Inhibitory Concentration, SC

| SMILES | MIC [1, 6] [µg/mL] | MIC ([3]; pH 8.2, nutrient agar) [µg/mL] | MIC (Bacillus subtilis (Bs); [7]) [µg/mL] | MIC (Bacillus subtilis (Bs); [8]) [µg/mL] | Marine Antifouling Rating, 6 Week Test, Top Panel (marine organisms) | Marine Antifouling Rating, 6 Week Test, Bottom Panel (marine organisms) | Marine Antifouling Rating, 10 Week Test, Top Panel (marine organisms) | Marine Antifouling Rating, 10 Week Test, Bottom Panel (marine organisms) | MIC [4, 9] [µg/mL] | MIC [5, 10] [µg/mL] | other results |
| --- | --- | --- | --- | --- | --- | --- | --- | --- | --- | --- | --- |
| N#CSc1nsnc1-c1ccccc1 [Example I, 4-Phenyl-3-thiocyanato-1,2,5-thiadiazole] | 25 (≈ 114 µM) | > 500 | 250 (≈ 1140 µM) | < 10 | 7 | 7 | 4 | 3 | 25 (≈ 114 µM) | 50 (≈ 228 µM) | MIC ([1]; 48 h, pH 8.2, read-out: Minimum Inhibitory Concentration, Kp): 500 µg/mL (≈ 2280 µM); MIC ([2]; pH 5.5, malt yeast agar, 30° C., 48 hours for yeast, read-out: Minimum Inhibitory Concentration, SC): < 1 µg/mL; MIC ([3]; pH 6.8, nutrient agar): > 500 µg/mL; MIC (Trichoderma viride (Tv); pH 5.5, malt yeast agar, 30° C., 72 hours for fungi, read-out: Minimum Inhibitory Concentration, Tv): 2.5 µg/mL (≈ 11.4 µM); MIC ([4]; 48 h, pH 8.2, read-out: Minimum Inhibitory Concentration, Sa): 500 µg/mL (≈ 2280 µM); MIC (Candida albicans (Ca); 48 h, pH 5.5, read-out: Minimum Inhibitory Concentration, Ca): 2.5 µg/mL (≈ 11.4 µM); MIC ([5]; 48 h, pH 8.2, read-out: Minimum Inhibitory Concentration, SC): > 500 µg/mL; MIC (Escherichia coli (Ec); 48 h, pH 6.8, read-out: Minimum Inhibitory Concentration, Ec): 50 µg/mL (≈ 228 µM); MIC (Escherichia coli (Ec); 48 h, pH 8.2, read-out: Minimum Inhibitory Concentration, Ec): > 500 µg/mL |
| N#CSCSc1nsnc1-c1ccccc1 [Example XVI, 4-Phenyl-3-thiocyanato-methylthio-1,2,5-thiadiazole] | 25 (≈ 94.2 µM) | 250 (≈ 942 µM) | 250 (≈ 942 µM) | < 10 | 9 | 9 | 4 | 9 | 25 (≈ 94.2 µM) | 25 (≈ 94.2 µM) | MIC ([1]; pH 8.2, nutrient agar, 30° C., 48 hours, read-out: Minimum Inhibitory Concentration, Kp): 100 µg/mL (≈ 377 µM); MIC ([2]; 48 h, pH 5.5, read-out: Minimum Inhibitory Concentration, SC): 2.5 µg/mL (≈ 9.42 µM); MIC (Trichoderma viride (Tv); 72 h, pH 5.5, read-out: Minimum Inhibitory Concentration, Tv): 10 µg/mL (≈ 37.7 µM); MIC ([4]; pH 8.2, nutrient agar, 30° C., 48 hours, read-out: Minimum Inhibitory Concentration, Sa): 50 µg/mL (≈ 188 µM); MIC (Candida albicans (Ca); pH 5.5, malt yeast agar, 30° C., 48 hours for yeast, read-out: Minimum Inhibitory Concentration, Ca): 5 µg/mL (≈ 18.8 µM); MIC ([5]; pH 8.2, nutrient agar, 30° C., 48 hours, read-out: Minimum Inhibitory Concentration, SC): 250 µg/mL (≈ 942 µM); MIC (Escherichia coli (Ec); pH 6.8, nutrient agar, 30° C., 48 hours, read-out: Minimum Inhibitory Concentration, Ec): 25 µg/mL (≈ 94.2 µM); MIC (Escherichia coli (Ec); pH 8.2, nutrient agar, 30° C., 48 hours, read-out: Minimum Inhibitory Concentration, Ec): 250 µg/mL (≈ 942 µM) |
